From patent publication US20220105188A1, “TARGET PROTEIN EED DEGRADATION-INDUCING DEGRADUCER, PREPARATION METHOD THEREOF, AND PHARMACEUTICAL COMPOSITION FOR PREVENTING OR TREATING DISEASES RELATED TO EED, EZH2, OR PRC2, COMPRISING SAME AS ACTIVE INGREDIENT” (KOREA RESEARCH INSTITUTE OF CHEMICAL TECHNOLOGY, priority 2019, published 2022)

biological target: T1, EED (Homo sapiens, UniProt O75530); experiment: EED Proteolytic Activity Evaluation 2 (western blot, Hela cells); type: cell-based; conditions: 1 nM, 10 nM, 100 nM and 1000 nM, 20 hours of treatment
T1 construct: 2×10^5 Hela cells were injected into a 12-well plate; endogenous in cells; host or cells: HeLa
T1 sequence (O75530 whole entry): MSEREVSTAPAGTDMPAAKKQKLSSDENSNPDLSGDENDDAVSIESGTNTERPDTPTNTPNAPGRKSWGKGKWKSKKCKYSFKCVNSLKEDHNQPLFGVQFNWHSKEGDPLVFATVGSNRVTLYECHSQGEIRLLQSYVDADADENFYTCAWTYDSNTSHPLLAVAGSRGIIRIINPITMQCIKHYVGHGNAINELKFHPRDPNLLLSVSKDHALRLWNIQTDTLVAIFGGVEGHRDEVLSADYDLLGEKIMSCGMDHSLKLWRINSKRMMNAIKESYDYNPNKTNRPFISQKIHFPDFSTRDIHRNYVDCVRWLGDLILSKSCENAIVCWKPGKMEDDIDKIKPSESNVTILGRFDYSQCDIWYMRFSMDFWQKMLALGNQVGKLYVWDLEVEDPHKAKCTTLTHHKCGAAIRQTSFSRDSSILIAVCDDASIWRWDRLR
Protocol: [Experiment 2] EED Proteolytic Activity Evaluation 2
In order to evaluate the EED proteolytic activity of the compound according to the present invention, an experiment was conducted as follows.
Specifically, 2×10^5 Hela cells were injected into a 12-well plate, and after 8 hours of stabilization, each well was treated with the example compounds to have final concentrations of 1 nM, 10 nM, 100 nM, and 1000 nM. One well was treated with the volume of DMSO contained in the sample corresponding to the highest concentration in the experimental group. After 20 hours of treatment, the cells were collected and lysed using 80 μl of SDS Lysis buffer (50 mM Tris pH8.0, 1% SDS, 1 mM EDTA, 0.5 mM PMSF, and protease inhibitor cocktail) and then sonication (30 sec on/59 sec off), 5 cycles) to prepare a cell lysate, followed by protein quantification through BCA, followed by Western blot, and the results are shown in Table 3. (Maximum EED degradation rate: A: >50%, B: 25-50%, C: <25%)

| Structure (SMILES) | EED degradation rate (Maximum EED degradation rate) |
| --- | --- |
| Cc1cccc(F)c1CN1C[C@H](c2ccc(N3CCN(CCC4CCN(c5ccc6c(c5)C(=O)N(C5CCC(=O)NC5=O)C6=O)CC4)CC3)cc2)[C@@H](N(C)C)C1 (stereo partly drawn) [Example 154, 5-(4-(2-(4-(4-((3S,4R)-4-(dimethylamino)-1-(2-fluoro-6-methylbenzyl)pyrrolidin-3-yl)phenyl)piperazin-1-yl)ethyl)piperidin-1-yl)-2-(2,6-dioxopiperidin-3-yl)isoindolin-1,3-dione] | A (A: >50%) |
| Cc1cccc(F)c1CN1C[C@H](c2ccc(N3CCN(CCC4CCN(C(=O)COc5cccc6c5C(=O)N(C5CCC(=O)NC5=O)C6=O)CC4)CC3)cc2)[C@@H](N(C)C)C1 (stereo partly drawn) [Example 151, 4-(2-(4-(2-(4-(4-((3S,4R)-4-(dimethylamino)-1-(2-fluoro-6-methylbenzyl)pyrrolidin-3-yl)phenyl)piperazin-1-yl)ethyl)piperidin-1-yl)-2-oxoethoxy)-2-(2,6-dioxopiperidin-3-yl)isoindolin-1,3-dione] | A (A: >50%) |
| O=C1CCC(n2nnc3ccc(NCC(=O)N4CCC(CN5CCC(n6cc(-c7cnc(NCc8ccco8)n8cnnc78)cn6)CC5)CC4)cc3c2=O)C(=O)N1 (stereo not drawn) [Example 128, 3-(6-((2-(4-((4-(4-(5-((furan-2-ylmethyl)amino)-[1,2,4]triazolo[4,3-c]pyrimidin-8-yl)-1H-pyrazol-1-yl)piperidin-1-yl)methyl)piperidin-1-yl)-2-oxoethyl)amino)-4-oxobenzo[d][1,2,3]triazin-3 (4H)-yl)piperidin-2,6-dione] | C (C: <25%) |
| Cc1cccc(F)c1CN1C[C@H](c2ccc(N3CCN(CC4CCN(c5ccc6c(c5)C(=O)N(C5CCC(=O)NC5=O)C6=O)CC4)CC3)cc2)[C@@H](N(C)C)C1 (stereo partly drawn) [Example 131, 5-(4-((4-(4-((3S,4R)-4-(dimethylamino)-1-(2-fluoro-6-methylbenzyl)pyrrolidin-3-yl)phenyl)piperazin-1-yl)methyl)piperidin-1-yl)-2-(2,6-dioxopiperidin-3-yl)isoindolin-1,3-dione] | A (A: >50%) |
| Cc1cccc(F)c1CN1C[C@H](c2ccc(N3CCN(C(=O)CCC4CCN(C(=O)COc5ccc6c(c5)C(=O)N(C5CCC(=O)NC5=O)C6=O)CC4)CC3)cc2)[C@@H](N(C)C)C1 (stereo partly drawn) [Example 147, 5-(2-(4-(3-(4-(4-((3S,4R)-4-(dimethylamino)-1-(2-fluoro-6-methylbenzyl)pyrrolidin-3-yl)phenyl)piperazin-1-yl)-3-oxopropyl)piperidin-1-yl)-2-oxoethoxy)-2-(2,6-dioxopiperidin-3-yl)isoindolin-1,3-dione] | B (B: 25-50%) |
| Cc1cccc(F)c1CN1C[C@H](c2ccc(N3CCN(C(=O)CC4CCN(C(=O)CNc5cccc6c5C(=O)N(C5CCC(=O)NC5=O)C6=O)CC4)CC3)cc2)[C@@H](N(C)C)C1 (stereo partly drawn) [Example 144, 4-((2-(4-(2-(4-(4-((3S,4R)-4-(dimethylamino)-1-(2-fluoro-6-methylbenzyl)pyrrolidin-3-yl)phenyl)piperazin-1-yl)-2-oxoethyl)piperidin-1-yl)-2-oxoethyl)amino)-2-(2,6-dioxopiperidin-3-yl)isoindolin-1,3-dione] | A (A: >50%) |
| Cc1cccc(F)c1CN1C[C@H](c2ccc(N3CCN(C(=O)CC4CCN(c5ccc6c(c5)C(=O)N(C5CCC(=O)NC5=O)C6=O)CC4)CC3)cc2)[C@@H](N(C)C)C1 (stereo partly drawn) [Example 132, 5-(4-(2-(4-(4-((3S,4R)-4-(dimethylamino)-1-(2-fluoro-6-methylbenzyl)pyrrolidin-3-yl)phenyl)piperazin-1-yl)-2-oxoethyl)piperidin-1-yl)-2-(2,6-dioxopiperidin-3-yl)isoindolin-1,3-dione] | A (A: >50%) |
| Cc1cccc(F)c1CN1C[C@H](c2ccc(N3CCN(CC4CCN(c5cccc6c5C(=O)N(C5CCC(=O)NC5=O)C6=O)CC4)CC3)cc2)[C@@H](N(C)C)C1 (stereo partly drawn) [Example 139, 4-(4-((4-(4-((3S,4R)-4-(dimethylamino)-1-(2-fluoro-6-methylbenzyl)pyrrolidin-3-yl)phenyl)piperazin-1-yl)methyl)piperidin-1-yl)-2-(2,6-dioxopiperidin-3-yl)isoindolin-1,3-dione] | C (C: <25%) |
| Cc1cccc(F)c1CN1C[C@H](c2ccc(N3CCN(CCC4CCN(C(=O)CNc5ccc6c(c5)C(=O)N(C5CCC(=O)NC5=O)C6=O)CC4)CC3)cc2)[C@@H](N(C)C)C1 (stereo partly drawn) [Example 136, 5-((2-(4-(2-(4-(4-((3S,4R)-4-(dimethylamino)-1-(2-fluoro-6-methylbenzyl)pyrrolidin-3-yl)phenyl)piperazin-1-yl)ethyl)piperidin-1-yl)-2-oxoethyl)amino)-2-(2,6-dioxopiperidin-3-yl)isoindolin-1,3-dione] | A (A: >50%) |
| Cc1cccc(F)c1CN1C[C@H](c2ccc(N3CCN(C(=O)CC4CCN(C(=O)COc5ccc6c(c5)C(=O)N(C5CCC(=O)NC5=O)C6=O)CC4)CC3)cc2)[C@@H](N(C)C)C1 (stereo partly drawn) [Example 145, 5-(2-(4-(2-(4-(4-((3S,4R)-4-(dimethylamino)-1-(2-fluoro-6-methylbenzyl)pyrrolidin-3-yl)phenyl)piperazin-1-yl)-2-oxoethyl)piperidin-1-yl)-2-oxoethoxy)-2-(2,6-dioxopiperidin-3-yl)isoindolin-1,3-dione] | B (B: 25-50%) |

More lines, now with the values ahead:

| EED degradation rate (Maximum EED degradation rate) | Structure (SMILES) |
| --- | --- |
| B (B: 25-50%) | Cc1cccc(F)c1CN1C[C@H](c2ccc(N3CCN(C(=O)CCCNc4ccc5c(c4)C(=O)N(C4CCC(=O)NC4=O)C5=O)CC3)cc2)[C@@H](N(C)C)C1 (stereo partly drawn) [Example 124, 5-((4-(4-(4-((3S,4R)-4-(dimethylamino)-1-(2-fluoro-6-methylbenzyl)pyrrolidin-3-yl)phenyl)piperazin-1-yl)-4-oxobutyl)amino)-2-(2,6-dioxopiperidin-3-yl)isoindolin-1,3-dione] |
| A (A: >50%) | Cc1cccc(F)c1CN1C[C@H](c2ccc(N3CCN(C(=O)CCCCCCCNc4cccc5c4C(=O)N(C4CCC(=O)NC4=O)C5=O)CC3)cc2)[C@@H](N(C)C)C1 (stereo partly drawn) [Example 125, 4-((8-(4-(4-((3S,4R)-4-(dimethylamino)-1-(2-fluoro-6-methylbenzyl)pyrrolidin-3-yl)phenyl)piperazin-1-yl)-8-oxooctyl)amino)-2-(2,6-dioxopiperidin-3-yl)isoindolin-1,3-dione] |
| A (A: >50%) | Cc1cccc(F)c1CN1C[C@H](c2ccc(N3CCN(C(=O)COCCOCCNC(=O)CNc4ccc5c(c4)C(=O)N(C4CCC(=O)NC4=O)C5=O)CC3)cc2)[C@@H](N(C)C)C1 (stereo partly drawn) [Example 121, N-(2-(2-(2-(4-(4-((3S,4R)-4-(dimethylamino)-1-(2-fluoro-6-methylbenzyl)pyrrolidin-3-yl)phenyl)piperazin-1-yl)-2-oxoethoxy)ethoxy)ethyl)-2-((2-(2,6-dioxopiperidin-3-yl)-1,3-dioxoisoindolin-5-yl)amino)acetamide] |
| A (A: >50%) | Cc1cccc(F)c1CN1C[C@H](c2ccc(N3CCN(C(=O)CC4CCN(C(=O)CNc5ccc6c(c5)C(=O)N(C5CCC(=O)NC5=O)C6=O)CC4)CC3)cc2)[C@@H](N(C)C)C1 (stereo partly drawn) [Example 146, 5-((2-(4-(2-(4-(4-((3S,4R)-4-(dimethylamino)-1-(2-fluoro-6-methylbenzyl)pyrrolidin-3-yl)phenyl)piperazin-1-yl)-2-oxoethyl)piperidin-1-yl)-2-oxoethyl)amino)-2-(2,6-dioxopiperidin-3-yl)isoindolin-1,3-dione] |
| A (A: >50%) | Cc1cccc(F)c1CN1C[C@H](c2ccc(N3CCN(C(=O)CCC4CCN(C(=O)CNc5ccc6c(c5)C(=O)N(C5CCC(=O)NC5=O)C6=O)CC4)CC3)cc2)[C@@H](N(C)C)C1 (stereo partly drawn) [Example 140, 5-((2-(4-(3-(4-(4-((3S,4R)-4-(dimethylamino)-1-(2-fluoro-6-methylbenzyl)pyrrolidin-3-yl)phenyl)piperazin-1-yl)-3-oxopropyl)piperidin-1-yl)-2-oxoethyl)amino)-2-(2,6-dioxopiperidin-3-yl)isoindolin-1,3-dione] |
| B (B: 25-50%) | Cc1cccc(F)c1CN1C[C@H](c2ccc(N3CCN(C(=O)CCCNc4cccc5c4C(=O)N(C4CCC(=O)NC4=O)C5=O)CC3)cc2)[C@@H](N(C)C)C1 (stereo partly drawn) [Example 123, 4-((4-(4-(4-((3S,4R)-4-(dimethylamino)-1-(2-fluoro-6-methylbenzyl)pyrrolidin-3-yl)phenyl)piperazin-1-yl)-4-oxobutyl)amino)-2-(2,6-dioxopiperidin-3-yl)isoindolin-1,3-dione] |
| B (B: 25-50%) | Cc1cccc(F)c1CN1C[C@H](c2ccc(N3CCN(C(=O)CCCCCCCNc4ccc5c(c4)C(=O)N(C4CCC(=O)NC4=O)C5=O)CC3)cc2)[C@@H](N(C)C)C1 (stereo partly drawn) [Example 126, 5-((8-(4-(4-((3S,4R)-4-(dimethylamino)-1-(2-fluoro-6-methylbenzyl)pyrrolidin-3-yl)phenyl)piperazin-1-yl)-8-oxooctyl)amino)-2-(2,6-dioxopiperidin-3-yl)isoindolin-1,3-dione] |
| B (B: 25-50%) | Cc1cccc(F)c1CN1C[C@H](c2ccc(N3CCN(C(=O)CCCCCNc4ccc5c(c4)C(=O)N(C4CCC(=O)NC4=O)C5=O)CC3)cc2)[C@@H](N(C)C)C1 (stereo partly drawn) [Example 138, 5-((6-(4-(4-((3S,4R)-4-(dimethylamino)-1-(2-fluoro-6-methylbenzyl)pyrrolidin-3-yl)phenyl)piperazin-1-yl)-6-oxohexyl)amino)-2-(2,6-dioxopiperidin-3-yl)isoindolin-1,3-dione] |
